Measurements reported in the supplement of paper PMC10331698.
± gives the standard deviation of the averaged measurements.

What was measured:
Assay in all cases: level (log10 ratio to DMSO vehicle control); higher = higher biomarker level / cell amount than vehicle control
Details in all cases: in DMSO
[1] = compound: O=S(=O)(O)CCC(F)(F)C(F)(F)C(F)(F)C(F)(F)F [4:2 Fluorotelomer sulfonic acid]
Protocol: (§1)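 BioMAP Diversity Plus panel of 12 human primary cell co-culture systems (3C, 4H, LPS, SAg, BT, BF4T, BE3C, CASM3C, HDF3CGF, KF3CT, MyoF, Mphg). Compounds were added 1 h before stimulation and left for 24 h (MyoF 48 h; BT 72 h for soluble read-outs or 6 d for IgG). Biomarkers were read by ELISA, cytotoxicity by SRB, PBMC viability and proliferation by Alamar Blue. Each well value was divided by the mean of 8 DMSO control wells on the same plate and log10 transformed; duplicate blinded samples were tested at 4 concentrations.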

[2] = compound: C=C(C)C(=O)OCC(F)(F)C(F)(F)C(F)(F)F [2,2,3,3,4,4,4-Heptafluorobutyl methacrylate]
Protocol: as §1

[3] = compound: O=C(CC(=O)C(F)(F)C(F)(F)C(F)(F)F)c1cccs1 [(Perfluorobutyryl)-2-thenoylmethane]
Protocol: as §1

[4] = compound: O=C(Cl)C(F)(F)C(F)(F)C(F)(F)C(=O)Cl [Hexafluoroglutaryl chloride]
Protocol: as §1

[5] = compound: OCCCCC(F)(F)C(F)(F)C(F)(F)C(F)(F)F [4:4 Fluorotelomer alcohol]
Protocol: as §1

Methotrexate = compound: CN(Cc1cnc2nc(N)nc(N)c2n1)c1ccc(C(=O)N[C@@H](CCC(=O)O)C(=O)O)cc1 [Methotrexate]
Protocol: as §1

| Test System | level (log10) ([1]; 6700 nM) | level (log10) ([1]; 20000 nM) | level (log10) ([1]; 60000 nM) | level (log10) ([2]; 6700 nM) | level (log10) ([2]; 20000 nM) | level (log10) ([2]; 60000 nM) | level (log10) ([3]; 6700 nM) | level (log10) ([3]; 20000 nM) | level (log10) ([4]; 6700 nM) | level (log10) ([4]; 20000 nM) | level (log10) ([4]; 60000 nM) | level (log10) ([5]; 6700 nM) | level (log10) ([5]; 20000 nM) | level (log10) ([5]; 60000 nM) | level (log10) (Methotrexate; 1500 nM) | level (log10) (Methotrexate; 4400 nM) | level (log10) (Methotrexate; 13000 nM) | level (log10) (Methotrexate; 40000 nM) |
| --- | --- | --- | --- | --- | --- | --- | --- | --- | --- | --- | --- | --- | --- | --- | --- | --- | --- | --- |
| 3C:CD142/Tissue Factor | -0.007 ± 0.044 | 0.0225 ± 0.011 | 0.024 ± 0.025 | -0.012 ± 0.021 | -0.017 ± 0.0014 | 0.001 ± 0.0099 | -0.0775 ± 0.022 | -0.356 ± 0.057 | -0.04 ± 0.042 | -0.0435 ± 0.0092 | -0.07 ± 0.092 | -0.0215 ± 0.025 | -0.018 ± 0.042 | 0.0155 ± 0.0092 | -0.0325 ± 0.042 | -0.0135 ± 0.033 | -0.0175 ± 0.081 | -0.005 ± 0.061 |
| KF3CT:CXCL8/IL-8 | -0.0095 ± 0.0078 | -0.024 ± 0.018 | -0.023 ± 0.025 | -0.0045 ± 0.023 | -0.0035 ± 0.015 | -0.0035 ± 0.013 | -0.037 ± 0.027 | -0.027 ± 0.025 | -0.0215 ± 0.013 | -0.0275 ± 0.035 | -0.0085 ± 0.0092 | 0.0185 ± 0.037 | -0.006 ± 0.023 | 0.0205 ± 0.036 | 0.002 ± 0.017 | 0 ± 0.021 | -0.0085 ± 0.023 | 0.014 ± 0.011 |
| lMphg:SRB-Mphg | -0.004 | 0.01 | 0.0065 ± 0.016 | 0.003 | -0.0115 ± 0.016 | 0.0155 ± 0.016 | 0.005 ± 0.011 | -0.054 ± 0.0028 | 0.007 ± 0.0057 | 0.0065 ± 0.005 | 0.0125 ± 0.011 | 0.008 ± 0.016 | -0.009 ± 0.0057 | -0.01 ± 0.0085 | -0.105 ± 0.073 | -0.0855 ± 0.0021 | -0.105 ± 0.064 | 0.0295 ± 0.025 |
| BE3C:Keratin 8/18 | 0.0065 ± 0.0021 | -0.002 ± 0.0014 | 0.0005 ± 0.0035 | -0.0165 ± 0.056 | -0.002 ± 0.05 | -0.003 ± 0.03 | -0.0535 ± 0.025 | -0.145 ± 0.005 | 0.0005 ± 0.005 | -0.0195 ± 0.0078 | -0.0135 ± 0.022 | -0.0025 ± 0.0035 | -0.012 ± 0.0042 | 0.0055 ± 0.015 | -0.0105 ± 0.047 | -0.035 ± 0.042 | -0.022 ± 0.057 | -0.024 ± 0.025 |
| HDF3CGF:CXCL11/I-TAC | -0.0475 ± 0.059 | -0.037 ± 0.064 | -0.089 ± 0.024 | -0.0085 ± 0.023 | -0.01 ± 0.034 | -0.0405 ± 0.018 | -0.014 ± 0.013 | -0.114 ± 0.0092 | -0.015 ± 0.0057 | -0.0145 ± 0.022 | -0.0085 ± 0.013 | 0.0075 ± 0.0078 | 0.0205 ± 0.0092 | -0.001 ± 0.014 | -0.0095 ± 0.013 | -0.0105 ± 0.033 | -0.008 ± 0.023 | -0.018 ± 0.05 |
| lMphg:CD62E/E-Selectin | -0.0235 ± 0.033 | -0.0105 ± 0.061 | -0.0105 ± 0.011 | -0.0085 ± 0.015 | -0.0005 ± 0.013 | -0.031 ± 0.0028 | -0.0485 ± 0.054 | -0.123 ± 0.034 | -0.0295 ± 0.016 | 0.0025 ± 0.018 | -0.0365 ± 0.022 | -0.0275 ± 0.018 | -0.012 ± 0.018 | -0.0195 ± 0.04 | -0.009 ± 0.0099 | -0.0265 ± 0.028 | -0.0135 ± 0.019 | -0.011 ± 0.033 |
| CASM3C:Proliferation | -0.012 ± 0.021 | -0.044 ± 0.0057 | 0 ± 0.031 | -0.012 ± 0.027 | -0.0015 ± 0.0035 | 0.0215 ± 0.012 | -0.0865 ± 0.013 | -0.245 ± 0.018 | 0.004 ± 0.0042 | -0.012 ± 0.027 | -0.031 ± 0.03 | -0.01 ± 0.0099 | -0.0345 ± 0.005 | -0.0075 ± 0.057 | -0.011 ± 0.096 | 0.0805 ± 0.025 | 0.0585 ± 0.0021 | 0.041 ± 0.014 |
| lMphg:CCL3/MIP-1alpha | 0.047 ± 0.031 | 0.021 ± 0.054 | 0.0465 ± 0.042 | -0.0095 ± 0.0092 | -0.0355 ± 0.044 | -0.0065 ± 0.012 | 0.0225 ± 0.029 | 0.012 ± 0.057 | 0.001 ± 0.069 | 0.012 ± 0.034 | 0.0145 ± 0.073 | -0.0205 ± 0.0035 | -0.041 ± 0.021 | -0.0365 ± 0.022 | -0.0375 ± 0.016 | -0.0305 ± 0.00071 | 0.0035 ± 0.012 | 0.029 ± 0.027 |
| CASM3C:CD141/Thrombomodulin | -0.01 ± 0.031 | -0.021 ± 0.0099 | -0.0045 ± 0.029 | 0.0205 ± 0.011 | 0 ± 0.042 | 0.0115 ± 0.036 | 0.0115 ± 0.09 | -0.008 ± 0.1 | -0.0055 ± 0.037 | -0.0135 ± 0.063 | -0.0125 ± 0.044 | -0.0065 ± 0.012 | -0.0065 ± 0.0078 | 0.0145 ± 0.032 | 0.0595 ± 0.005 | -0.008 ± 0.093 | 0.0155 ± 0.098 | 0.044 ± 0.021 |
| BE3C:tPA | 0.012 ± 0.013 | -0.0315 ± 0.03 | 0.011 ± 0.05 | -0.0095 ± 0.029 | -0.016 ± 0.016 | -0.021 ± 0.027 | -0.1 ± 0.014 | -0.234 ± 0.011 | -0.005 ± 0.0014 | -0.009 ± 0.014 | -0.0075 ± 0.022 | -0.0075 ± 0.00071 | -0.013 ± 0.038 | 0.015 ± 0.021 | 0.012 ± 0.0071 | -0.004 ± 0.075 | 0.0085 ± 0.091 | 0.0215 ± 0.033 |
| HDF3CGF:Collagen I | -0.0015 ± 0.054 | -0.007 ± 0.0057 | 0.0385 ± 0.018 | -0.0145 ± 0.0021 | -0.0495 ± 0.064 | 0.016 ± 0.033 | -0.0265 ± 0.04 | -0.185 ± 0.0071 | -0.025 ± 0.023 | 0.002 | 0.0065 ± 0.028 | -0.0175 ± 0.067 | -0.0175 ± 0.071 | 0.031 ± 0.13 | -0.0495 ± 0.079 | -0.077 ± 0.083 | -0.068 ± 0.095 | -0.0415 ± 0.035 |
| HDF3CGF:CCL2/MCP-1 | -0.008 ± 0.0071 | -0.009 ± 0.017 | 0.0105 ± 0.028 | 0.0055 ± 0.012 | -0.001 ± 0.0057 | -0.0115 ± 0.018 | -0.005 ± 0.011 | -0.172 ± 0.014 | -0.036 ± 0.0099 | -0.0285 ± 0.037 | 0.0095 ± 0.00071 | 0.004 ± 0.0014 | 0.008 ± 0.0099 | 0.007 ± 0.016 | -0.0395 ± 0.059 | -0.0325 ± 0.093 | -0.0425 ± 0.071 | -0.0435 ± 0.11 |
| CASM3C:CD106/VCAM-1 | 0.0035 ± 0.0078 | -0.0285 ± 0.025 | -0.0325 ± 0.005 | 0.0205 ± 0.013 | -0.006 ± 0.04 | 0.001 ± 0.02 | -0.0225 ± 0.012 | -0.104 ± 0.028 | -0.017 ± 0.03 | -0.013 ± 0.024 | 0.0025 ± 0.047 | -0.015 ± 0.03 | -0.0205 ± 0.00071 | 0.006 ± 0.027 | -0.022 ± 0.05 | 0.016 ± 0.0014 | 0.009 ± 0.0028 | -0.002 ± 0.027 |
| CASM3C:SRB | -0.0045 ± 0.0064 | -0.013 ± 0.0028 | -0.001 ± 0.0028 | 0.0045 ± 0.0021 | -0.0005 ± 0.0092 | -0.004 ± 0.0057 | 0.0105 ± 0.0064 | -0.0125 ± 0.0078 | -0.0045 ± 0.0021 | 0.007 ± 0.0042 | 0.0115 ± 0.016 | -0.0045 ± 0.00071 | 0.0015 ± 0.012 | -0.0025 ± 0.016 | 0.001 | -0.0095 ± 0.0064 | -0.0055 ± 0.0035 | -0.0105 ± 0.011 |
| HDF3CGF:CD106/VCAM-1 | 0.0515 ± 0.081 | 0.0365 ± 0.094 | 0.021 ± 0.11 | -0.023 ± 0.0042 | -0.017 ± 0.03 | -0.07 ± 0.028 | -0.0405 ± 0.018 | 0.025 ± 0.0042 | -0.013 ± 0.0085 | 0.0205 ± 0.049 | -0.041 ± 0.014 | -0.028 ± 0.083 | -0.0125 ± 0.04 | -0.0215 ± 0.0021 | 0.028 ± 0.031 | 0.01 ± 0.03 | 0.0355 ± 0.069 | -0.0225 ± 0.1 |
| HDF3CGF:SRB | -0.0365 ± 0.037 | -0.0075 ± 0.033 | 0.033 ± 0.058 | 0.007 ± 0.02 | -0.002 ± 0.0099 | 0.017 ± 0.0085 | 0.0935 ± 0.005 | 0.0145 ± 0.005 | -0.004 ± 0.0085 | 0.0295 ± 0.0035 | 0.007 ± 0.014 | 0.0015 ± 0.036 | -0.0165 ± 0.0064 | 0.006 ± 0.018 | 0.018 ± 0.034 | -0.0135 ± 0.0035 | 0.025 ± 0.011 | 0.014 ± 0.016 |
